# Legend:
# Assay in all cases: KinomeScan kinase profiling
# Type in all cases: binding
# ANKK1 = target: T1, ANKK1 (Homo sapiens, UniProt Q8NFD2)
# T1 construct: host or cells: E. coli host derived from BL21 (T7 phage lysate)
# In short: (§1)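 Kinases were expressed as T7 phage fusions in a BL21-derived E. coli host and the cleared lysates were used. Ligand beads were blocked with biotin and buffer (1% BSA, 0.05% Tween 20, 1 mM DTT). Compounds came from 40× DMSO stocks, and phage in the eluates was titred by qPCR.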
# BIKE = target: T2, BIKE (Homo sapiens, UniProt Q9NSY1)
# T2 construct: purchased Ambit Biosciences Corp (KinomeScan); host or cells: E. coli host derived from the BL21 strain, T7 phage
# In short: as §1
# BRAF = target: T3, BRAF (Homo sapiens, UniProt P15056)
# T3 construct: purchased Ambit Biosciences Corp (KinomeScan); host or cells: E. coli host derived from the BL21 strain, T7 phage
# In short: as §1
# CSNK1E = target: T4, CSNK1E (Homo sapiens, UniProt P49674)
# T4 construct: host or cells: T7 phage in E. coli (BL21-derived)
# In short: as §1
# CSNK1G1 = target: T5, CSNK1G1 (Homo sapiens, UniProt Q9HCP0)
# T5 construct: purchased Ambit Biosciences Corp (KinomeScan); host or cells: T7 phage in E. coli host derived from BL21
# In short: as §1
# EGFR = target: T6, EGFR (Homo sapiens, UniProt P00533)
# T6 construct: purchased Ambit Biosciences Corp (KinomeScan); host or cells: T7 phage in E. coli host derived from BL21
# In short: as §1
# EPHA7 = target: T7, EPHA7 (Homo sapiens, UniProt Q15375)
# T7 construct: host or cells: E. coli host derived from BL21, T7 phage lysate
# In short: as §1
# ERK4 = target: T8, ERK4 (Homo sapiens, UniProt P31152)
# T8 construct: host or cells: E. coli host derived from BL21, T7 phage lysate
# In short: as §1
# FER = target: T9, FER (Homo sapiens, UniProt P16591)
# T9 construct: host or cells: E. coli host derived from BL21, infected with T7 phage
# In short: as §1
# FYN = target: T10, FYN (Homo sapiens, UniProt P06241)
# T10 construct: host or cells: E. coli host derived from BL21, infected with T7 phage
# In short: as §1
# HCK = target: T11, HCK (Homo sapiens, UniProt P08631)
# T11 construct: host or cells: E. coli host derived from BL21, infected with T7 phage
# In short: as §1
# INSR = target: T12, INSR (Homo sapiens, UniProt P06213)
# T12 construct: host or cells: T7 phage in E. coli host derived from BL21
# In short: as §1
# [1] = target: T13, JAK1 (JH1domain-catalytic) (Homo sapiens, UniProt P23458)
# T13 construct: JAK1 (JH1domain-catalytic); host or cells: T7 phage in E. coli host derived from BL21
# In short: as §1
# JNK2 = target: T14, JNK2 (Homo sapiens, UniProt P45984)
# T14 construct: host or cells: T7 phage in E. coli host derived from BL21
# In short: as §1
# LKB1 = target: T15, LKB1 (Homo sapiens, UniProt Q15831)
# T15 construct: host or cells: E. coli derived from BL21, infected with T7 phage
# In short: as §1
# MARK2 = target: T16, MARK2 (Homo sapiens, UniProt Q7KZI7)
# T16 construct: host or cells: E. coli derived from BL21, infected with T7 phage
# In short: as §1
# MST1 = target: T17, MST1 (Homo sapiens, UniProt Q13043)
# T17 construct: host or cells: T7 phage in E. coli host derived from BL21
# In short: as §1
# PAK2 = target: T18, PAK2 (Homo sapiens, UniProt Q13177)
# T18 construct: host or cells: E. coli host derived from the BL21 strain, infected with T7 phage
# In short: as §1
# PFTAIRE2 = target: T19, PFTAIRE2 (Homo sapiens, UniProt Q96Q40)
# T19 construct: host or cells: E. coli host derived from the BL21 strain, infected with T7 phage
# In short: as §1
# PIM1 = target: T20, PIM1 (Homo sapiens, UniProt P11309)
# T20 construct: purchased Ambit Biosciences Corp (KinomeScan); host or cells: E. coli host derived from BL21, infected with T7 phage
# In short: as §1
# PRKD2 = target: T21, PRKD2 (Homo sapiens, UniProt Q9BZL6)
# T21 construct: purchased Ambit Biosciences Corp (KinomeScan); host or cells: E. coli host derived from BL21, infected with T7 phage
# In short: as §1
# PRKG2 = target: T22, PRKG2 (Homo sapiens, UniProt Q13237)
# T22 construct: purchased Ambit Biosciences Corp (KinomeScan); host or cells: E. coli host derived from BL21, infected with T7 phage
# In short: as §1
# RET = target: T23, RET (Homo sapiens, UniProt P07949)
# T23 construct: host or cells: E. coli host derived from BL21, T7 phage lysate
# In short: as §1
# T21 sequence (Q9BZL6 whole entry): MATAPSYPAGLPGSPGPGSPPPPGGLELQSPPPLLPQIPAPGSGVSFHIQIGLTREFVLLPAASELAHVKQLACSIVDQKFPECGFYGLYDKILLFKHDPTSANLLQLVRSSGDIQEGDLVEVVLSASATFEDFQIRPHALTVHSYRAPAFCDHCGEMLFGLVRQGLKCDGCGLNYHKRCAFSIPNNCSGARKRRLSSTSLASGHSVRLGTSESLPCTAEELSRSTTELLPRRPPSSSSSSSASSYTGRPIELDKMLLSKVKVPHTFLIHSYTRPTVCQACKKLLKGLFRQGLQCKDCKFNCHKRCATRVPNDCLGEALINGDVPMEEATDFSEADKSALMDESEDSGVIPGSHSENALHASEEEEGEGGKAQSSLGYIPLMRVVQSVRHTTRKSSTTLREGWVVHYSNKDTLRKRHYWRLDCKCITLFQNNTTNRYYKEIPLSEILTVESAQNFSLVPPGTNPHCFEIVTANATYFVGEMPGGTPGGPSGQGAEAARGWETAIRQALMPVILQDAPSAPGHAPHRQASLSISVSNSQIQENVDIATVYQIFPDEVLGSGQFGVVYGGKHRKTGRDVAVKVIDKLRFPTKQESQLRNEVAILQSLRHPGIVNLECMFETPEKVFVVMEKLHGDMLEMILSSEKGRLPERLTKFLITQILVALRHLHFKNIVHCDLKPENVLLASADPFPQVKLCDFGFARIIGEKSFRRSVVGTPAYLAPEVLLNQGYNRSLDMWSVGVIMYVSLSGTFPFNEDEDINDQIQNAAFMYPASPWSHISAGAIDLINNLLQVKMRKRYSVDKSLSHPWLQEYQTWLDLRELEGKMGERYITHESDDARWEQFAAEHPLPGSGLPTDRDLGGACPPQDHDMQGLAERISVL
# T17 sequence (Q13043 whole entry): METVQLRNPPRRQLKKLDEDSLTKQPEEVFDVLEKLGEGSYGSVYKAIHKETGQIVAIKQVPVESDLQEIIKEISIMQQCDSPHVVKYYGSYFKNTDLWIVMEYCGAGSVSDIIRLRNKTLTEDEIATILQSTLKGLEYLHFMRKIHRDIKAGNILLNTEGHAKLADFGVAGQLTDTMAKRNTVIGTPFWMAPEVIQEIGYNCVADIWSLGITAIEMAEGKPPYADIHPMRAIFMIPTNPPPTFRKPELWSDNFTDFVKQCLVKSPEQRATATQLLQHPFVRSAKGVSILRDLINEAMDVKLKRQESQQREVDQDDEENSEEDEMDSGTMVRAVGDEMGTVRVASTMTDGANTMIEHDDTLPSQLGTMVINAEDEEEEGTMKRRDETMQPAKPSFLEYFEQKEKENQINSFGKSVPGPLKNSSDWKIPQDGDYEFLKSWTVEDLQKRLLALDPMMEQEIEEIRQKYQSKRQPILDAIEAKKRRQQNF
# T13 sequence (P23458 875-1153 limits assumed): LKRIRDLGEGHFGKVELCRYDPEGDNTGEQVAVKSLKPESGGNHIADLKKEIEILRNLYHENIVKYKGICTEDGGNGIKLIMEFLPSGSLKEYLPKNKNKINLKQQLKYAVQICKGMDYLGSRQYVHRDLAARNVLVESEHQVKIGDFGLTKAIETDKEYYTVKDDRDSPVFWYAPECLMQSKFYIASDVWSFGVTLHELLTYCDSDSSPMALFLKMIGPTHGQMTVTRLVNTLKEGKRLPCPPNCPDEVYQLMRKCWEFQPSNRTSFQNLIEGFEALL
# T10 sequence (P06241 whole entry): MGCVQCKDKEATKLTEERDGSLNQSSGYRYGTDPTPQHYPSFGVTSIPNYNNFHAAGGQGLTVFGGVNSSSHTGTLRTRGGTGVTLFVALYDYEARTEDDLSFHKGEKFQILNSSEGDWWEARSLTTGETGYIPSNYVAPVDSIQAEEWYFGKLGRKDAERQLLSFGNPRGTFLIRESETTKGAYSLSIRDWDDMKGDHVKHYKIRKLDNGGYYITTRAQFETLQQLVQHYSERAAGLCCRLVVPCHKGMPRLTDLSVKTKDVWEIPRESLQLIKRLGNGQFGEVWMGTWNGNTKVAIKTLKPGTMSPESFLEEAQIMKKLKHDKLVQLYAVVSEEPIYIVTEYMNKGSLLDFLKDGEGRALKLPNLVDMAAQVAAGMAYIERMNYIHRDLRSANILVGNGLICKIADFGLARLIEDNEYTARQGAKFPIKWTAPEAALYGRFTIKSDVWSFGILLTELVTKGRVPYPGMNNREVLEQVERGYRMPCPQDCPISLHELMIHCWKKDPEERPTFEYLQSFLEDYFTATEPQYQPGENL
# T23 sequence (P07949 29-1114): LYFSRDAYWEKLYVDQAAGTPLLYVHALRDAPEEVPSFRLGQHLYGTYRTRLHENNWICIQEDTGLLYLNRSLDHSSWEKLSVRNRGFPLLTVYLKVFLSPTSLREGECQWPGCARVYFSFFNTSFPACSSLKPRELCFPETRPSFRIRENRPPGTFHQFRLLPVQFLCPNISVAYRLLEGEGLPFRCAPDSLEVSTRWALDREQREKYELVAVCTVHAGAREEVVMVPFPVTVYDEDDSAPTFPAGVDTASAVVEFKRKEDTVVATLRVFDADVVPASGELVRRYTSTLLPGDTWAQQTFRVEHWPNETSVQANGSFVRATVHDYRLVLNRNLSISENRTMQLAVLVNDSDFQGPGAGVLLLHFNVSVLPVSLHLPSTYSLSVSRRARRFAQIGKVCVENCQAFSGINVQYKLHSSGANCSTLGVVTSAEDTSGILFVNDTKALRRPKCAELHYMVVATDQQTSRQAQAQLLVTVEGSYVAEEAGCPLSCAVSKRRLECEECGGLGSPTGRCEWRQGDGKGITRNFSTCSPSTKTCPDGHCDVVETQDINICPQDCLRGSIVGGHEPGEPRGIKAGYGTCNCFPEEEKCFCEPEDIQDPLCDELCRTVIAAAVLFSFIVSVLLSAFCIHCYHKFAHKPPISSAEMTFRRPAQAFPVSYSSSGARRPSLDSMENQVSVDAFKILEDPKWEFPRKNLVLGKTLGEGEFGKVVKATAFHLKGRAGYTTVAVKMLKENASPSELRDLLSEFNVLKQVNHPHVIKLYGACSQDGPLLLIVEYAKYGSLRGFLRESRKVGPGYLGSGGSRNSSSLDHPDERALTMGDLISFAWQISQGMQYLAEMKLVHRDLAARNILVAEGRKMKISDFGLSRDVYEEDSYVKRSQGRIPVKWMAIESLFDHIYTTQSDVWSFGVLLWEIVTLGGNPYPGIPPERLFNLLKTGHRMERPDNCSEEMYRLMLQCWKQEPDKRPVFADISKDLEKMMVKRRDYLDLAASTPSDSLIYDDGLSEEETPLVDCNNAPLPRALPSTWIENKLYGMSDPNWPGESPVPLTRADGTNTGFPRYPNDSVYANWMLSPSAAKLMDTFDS
# T3 sequence (P15056 whole entry): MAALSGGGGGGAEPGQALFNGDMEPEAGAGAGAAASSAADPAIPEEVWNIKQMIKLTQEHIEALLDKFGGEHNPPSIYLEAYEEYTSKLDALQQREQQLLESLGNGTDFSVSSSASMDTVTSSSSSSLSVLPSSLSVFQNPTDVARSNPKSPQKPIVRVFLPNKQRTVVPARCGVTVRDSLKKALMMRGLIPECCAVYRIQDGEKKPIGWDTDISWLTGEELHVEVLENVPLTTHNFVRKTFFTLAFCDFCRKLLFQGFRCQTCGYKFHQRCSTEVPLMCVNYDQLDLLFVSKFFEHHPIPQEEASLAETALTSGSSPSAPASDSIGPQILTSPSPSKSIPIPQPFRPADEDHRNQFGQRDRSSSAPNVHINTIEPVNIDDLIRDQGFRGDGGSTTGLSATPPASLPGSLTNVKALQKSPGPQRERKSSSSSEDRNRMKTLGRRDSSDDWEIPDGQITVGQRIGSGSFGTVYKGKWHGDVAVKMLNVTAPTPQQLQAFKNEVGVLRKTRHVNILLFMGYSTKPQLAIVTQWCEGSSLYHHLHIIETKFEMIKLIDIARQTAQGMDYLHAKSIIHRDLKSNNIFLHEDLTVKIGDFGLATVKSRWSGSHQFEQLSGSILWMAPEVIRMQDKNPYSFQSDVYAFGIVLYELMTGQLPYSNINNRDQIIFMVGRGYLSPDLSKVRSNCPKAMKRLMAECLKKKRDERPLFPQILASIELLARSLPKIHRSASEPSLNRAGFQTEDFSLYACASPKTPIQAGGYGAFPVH
# T7 sequence (Q15375 28-998): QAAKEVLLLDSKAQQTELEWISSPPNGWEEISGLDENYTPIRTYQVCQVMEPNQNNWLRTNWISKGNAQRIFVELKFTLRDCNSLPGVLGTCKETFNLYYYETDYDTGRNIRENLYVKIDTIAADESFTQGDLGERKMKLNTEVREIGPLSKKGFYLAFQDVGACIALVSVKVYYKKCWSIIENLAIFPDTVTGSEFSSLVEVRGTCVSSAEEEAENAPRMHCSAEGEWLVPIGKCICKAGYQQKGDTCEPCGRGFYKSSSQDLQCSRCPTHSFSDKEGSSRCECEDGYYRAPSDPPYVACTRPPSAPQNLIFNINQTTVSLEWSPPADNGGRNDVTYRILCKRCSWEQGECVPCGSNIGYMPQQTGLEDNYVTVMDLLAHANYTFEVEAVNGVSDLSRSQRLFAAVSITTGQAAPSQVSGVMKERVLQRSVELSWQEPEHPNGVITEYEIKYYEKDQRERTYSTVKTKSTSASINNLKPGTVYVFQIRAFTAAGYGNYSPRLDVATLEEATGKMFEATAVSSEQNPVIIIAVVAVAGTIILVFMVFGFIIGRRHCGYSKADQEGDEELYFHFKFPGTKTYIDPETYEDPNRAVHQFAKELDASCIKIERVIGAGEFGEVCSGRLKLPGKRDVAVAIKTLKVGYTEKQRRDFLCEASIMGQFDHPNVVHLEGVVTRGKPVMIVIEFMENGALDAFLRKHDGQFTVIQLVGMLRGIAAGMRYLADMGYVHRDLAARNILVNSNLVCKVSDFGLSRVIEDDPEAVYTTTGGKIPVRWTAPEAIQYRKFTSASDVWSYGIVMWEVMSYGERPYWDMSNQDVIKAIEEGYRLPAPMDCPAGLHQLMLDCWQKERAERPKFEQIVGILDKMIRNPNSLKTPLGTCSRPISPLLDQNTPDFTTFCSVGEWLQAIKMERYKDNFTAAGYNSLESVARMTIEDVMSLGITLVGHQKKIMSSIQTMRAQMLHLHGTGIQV
smiles,measurement,setting,value
"C#Cc1cccc(Nc2ncnc3cc(OC)c(OCCCN4CCOCC4)cc23)c1 [NRC-2694, N-(3-ethylnylphenyl)-7-methoxy-6-[3-(4-morpholinyl)propoxy]-4-quinazolinamine]",% Ctrl @ 10000 nM,ANKK1,73 % Ctrl
same,% Ctrl @ 10000 nM,BIKE,36 % Ctrl
same,% Ctrl @ 10000 nM,BRAF,81 % Ctrl
same,% Ctrl @ 10000 nM,CSNK1E,9.6 % Ctrl
same,% Ctrl @ 10000 nM,CSNK1G1,55 % Ctrl
same,% Ctrl @ 10000 nM,EGFR,0 % Ctrl
same,% Ctrl @ 10000 nM,EPHA7,70 % Ctrl
same,% Ctrl @ 10000 nM,ERK4,3.7 % Ctrl
same,% Ctrl @ 10000 nM,FER,94 % Ctrl
same,% Ctrl @ 10000 nM,FYN,41 % Ctrl
same,% Ctrl @ 10000 nM,HCK,17 % Ctrl
same,% Ctrl @ 10000 nM,INSR,90 % Ctrl
same,% Ctrl @ 10000 nM,[1],15 % Ctrl
same,% Ctrl @ 10000 nM,JNK2,95 % Ctrl
same,% Ctrl @ 10000 nM,LKB1,69 % Ctrl
same,% Ctrl @ 10000 nM,MARK2,70 % Ctrl
same,% Ctrl @ 10000 nM,MST1,100 % Ctrl
same,% Ctrl @ 10000 nM,PAK2,67 % Ctrl
same,% Ctrl @ 10000 nM,PFTAIRE2,71 % Ctrl
same,% Ctrl @ 10000 nM,PIM1,39 % Ctrl
same,% Ctrl @ 10000 nM,PRKD2,0.4 % Ctrl
same,% Ctrl @ 10000 nM,PRKG2,40 % Ctrl
same,% Ctrl @ 10000 nM,RET,65 % Ctrl
